We go through 88 molecules from a melting point compilation (Tetko et al.; mined from patent text by program, amines drawn as free bases though some values may be those of a salt).

In general, melting point refers to the temperature, or range, at which the solid turns liquid. In the case of `Cc1ccccc1C(=O)Nc1ccc(C(=O)N2CCCC(NC(=O)Nc3ccccc3)c3ccccc32)cc1` (stereo not drawn), the melting point was in the range of 269 to 271 °C.
Consider `Nc1cccc(N)c1Cl`, for which the melting point lay in the range of 82 to 83.5 °C.
In turn, `COc1ccc(OC)n2nc(S(=O)(=O)Nc3c(F)cccc3F)nc12` came in with a melting point of 319 to 320 °C.
Take `CNC1CC=C(c2c[nH]c3ccc([N+](=O)[O-])cc23)CC1` (stereo not drawn): the melting point fell in the range of 208 to 210 °C.
Take `CCCCCC(CNC(=O)Nc1c(C(C)C)cccc1C(C)C)c1cccc2c1OCO2` (stereo not drawn): the melting point was in the range of 161 to 163 °C.
In turn, `Cn1c(=O)c2c(-c3nc(C4CC4)no3)ncn2c2ccccc21` came in with a melting point of 184 to 190 °C.
The figure for `O=S(=O)(Nc1ccc(Cl)cc1)c1ccc(Cl)cc1` is 144 to 146 °C.
`NCC(CC(=O)O)C1CCC1` (stereo not drawn) came in with a melting point of 115 to 117 °C.
Take `CN1CCN(S(=O)(=O)c2ccc3c(c2)C(=O)c2ccccc2C3=O)CC1`: the melting point is 216 to 218 °C.
In turn, `COCCOc1cc2ncnc(NC3=CC(=O)C(NCc4cccc(C)c4)=CC3=O)c2cc1OC` came in with a melting point of 241 to 242 °C.
The molecule `COc1ccccc1NC(=O)Nc1ccc(N2CCN(C(=O)Nc3cc(OCCO)ccc3Cl)CC2)cc1` gave a melting point of 179 to 180 °C.
Next, `CN1CCC(c2c[nH]c3ccc(OS(=O)(=O)c4ccccc4)cc23)CC1`: 192 to 194 °C; `Cc1ccc(S(=O)(=O)O)cc1C=C1C(=O)C2(C)CCC1C2(C)C` (stereo not drawn): 130 °C.
The molecule `O=C(Nc1cnc(N2CCCC2)cc1C(F)(F)F)c1cc2cc(C(F)(F)F)cnc2n1Cc1cccc(F)c1` showed a melting point of 207 to 208 °C.
The molecule `Nc1ccc(S(=O)(=O)c2cc(-c3cccc(Cl)c3)nc(N3CCCC3)c2)cc1` returned a melting point of 260 to 261 °C.
In the case of `O=C(CCl)Nc1ccc(Cl)cc1C(=O)c1ccccc1`, the melting point lay within 119 to 120 °C.
The molecule `CCCN(CC)C(C)CN1CCc2c(c(=O)oc3cc(OC)c(OC)cc23)C1` (stereo not drawn) gave a melting point of 93 to 96 °C.
`COC(=O)Cn1sc2ccccc2c1=O` had a melting point of 89 to 91 °C.
Regarding `CCCCCCCCCCCCCCCCCCOCC(Br)COCCCCCCCCCCCCCCCCCC`, the melting point fell in the range of 47.9 to 48.7 °C.
Consider `O=C1Nc2ccc(C3CCCCC3)cc2C12OCCO2`, for which the melting point is 178 to 180 °C.
Take `N#CCCSCc1nccc(N)n1`: the melting point lay within 106 to 109 °C.
The molecule `CCOC(=O)C(=O)/C=C/c1ccc(OCCc2nc(-c3ccccc3)oc2C)cc1` had a melting point of 99 to 100 °C.
With `O=C(O)c1cc(OCc2ccccc2)c(OCc2ccccc2)c(OCc2ccccc2)c1`, the melting point was in the range of 194 to 195 °C.
For the molecule `COC(=O)c1ncc(N)nc1N`, the melting point was 252 to 254 °C.
`CCCCCCCCCCCCCCNC(=O)c1cc(N)cc(C(=O)NCCCCCCCCCCCCCC)c1` displayed a melting point of 171 to 178 °C.
Next, `CCCCC1(N(C)C)CCC(c2[nH]c3ccc(F)cc3c2C)(c2[nH]c3ccccc3c2CCNC(=O)Nc2ccccc2)CC1` (stereo not drawn): 127 to 132 °C.
Turning to `CN(Cc1cc2c(=O)c(C(=O)NCc3ccc(Cl)cc3)cn(C)c2o1)CC(O)c1cnccn1` (single isomer, unassigned; (+)), the melting point lay within 148 to 151 °C.
Next, `Cc1ccc(F)c(C(C)Oc2ccc3nc(NC(=O)NCCN4CCOCC4)sc3c2)c1F` (stereo not drawn): 92 to 95 °C; `CCc1nc2c(N)nc(-c3ccncc3)nc2[nH]1`: over 300 °C; `CC(=N)NS(=O)(=O)c1cc(I)cc(C#N)c1`: 177 to 178 °C.
With `CN1CCN(c2cncc(Cl)n2)CC1=O`, the melting point was 122 to 123 °C.
The molecule `Cc1ccc(Cn2c(=O)cc(C(C)C(=O)Oc3ccccc3)c3cc(C)ccc32)cc1` (stereo not drawn) returned a melting point of 111 to 113 °C.
`COC(=O)c1ccc(N2C(=O)C(O)=C(C(=O)c3ccc(C)cc3)C2c2ccc(C(C)(C)C)cc2)nc1` (stereo not drawn) gave a melting point of 287 to 288 °C.
Take `O=C(O)CCn1c2ccc(O)cc2c2c3c(c(-c4ccccc4Cl)cc21)C(=O)NC3=O`: the melting point was 286 °C.
Molecule `N#Cc1cc2nc(O)c(O)nc2c2[nH]nnc12` registered a melting point of over 300 °C.
For the molecule `CCOc1nc2ccccc2nc1NC(=O)N1CCN(c2cc(F)cc(F)c2)CC1`, the melting point lay within 146 to 148 °C.
For `Cc1cccc2sc(S)nc12`, the melting point is 161 to 173 °C.
Next, `CCCCc1nc2c(=O)[nH]ccc2n1Cc1ccc(-c2ccccc2C#N)cc1`: 179 °C.
`CN(c1ccncc1)c1csc2ncccc12` returned a melting point of 143 to 145 °C.
With `c1cnc2cc[nH]c2c1`, the melting point lay within 126 to 128 °C.
For `O=C1c2cc(OCc3ccccn3)ccc2OCC1Oc1cccnc1` (stereo not drawn), the melting point lay within 155 to 156 °C.
`COc1ccc(CN2CC=C(/C=C/c3ccccc3)CC2)cc1` came in with a melting point of 144 to 146 °C.
Molecule `O=[N+]([O-])c1cc[nH]c1-c1ccccc1` displayed a melting point of 190 to 192 °C.
Molecule `CCN(CC)Cc1nc(-c2ncn3c2CN(C)C(=O)c2cc(F)ccc2-3)no1` registered a melting point of 172 to 174 °C.
The molecule `CCCCCCCCNC(=O)Nc1ccccc1C(=O)NCC1CCN(C(c2ccccc2)c2ccccc2)CC1` came in with a melting point of 155 to 157 °C.
Turning to `Cc1cccc(NC(=O)NC2N=C(C(C)C)c3cccc(C)c3N(CC(=O)N3CC4CCC(CC4)C3)C2=O)c1` (stereo not drawn), the melting point lay within 190 to 193 °C.
Molecule `CC(=O)Nc1cc2c(cc1[N+](=O)[O-])[C@@H](N1CCCC1=O)[C@H](O)C(C)(C)O2` (relative stereo) came in with a melting point of 266 to 268 °C.
Molecule `Cc1cccc(C)c1NCCNCC(O)COc1ccc(F)cc1` (stereo not drawn) came in with a melting point of 105 to 106 °C.
`CCCC1(C(C)(C)C(=O)Oc2ccc(N)cc2)C(=O)NC(=O)NC1=O` gave a melting point of 212 to 215 °C.
For `COc1cc(Nc2c(C#N)cnc3cc(-c4csc(CN5CCOCC5)c4)sc23)c(Cl)cc1Cl`, the melting point fell in the range of 209 to 212 °C.
For the molecule `COC(=O)c1csc(CCCc2cc3c(=O)[nH]c(N)nc3[nH]2)c1`, the melting point lay in the range of 182 to 183 °C.
`CC(C)(C)c1ccc(S(=O)(=O)Nc2nc(-c3ncccn3)nc(OCCO)c2-c2cccs2)cc1` showed a melting point of 236 to 237 °C.
`CC1(C)CSCC(C)(C)c2[nH]c(-c3ccccc3)nc21` gave a melting point of 223 to 224 °C.
The figure for `O=C(c1ccccc1)C(Cc1ccccc1)C(=O)c1ccccc1` is 102 to 103 °C.
The figure for `COc1cnccc1C#N` is 66 to 67 °C.
For `CC(=O)Nc1cc(N(C)C)c([N+](=O)[O-])cc1C(=O)O`, the melting point was in the range of 230 to 255 °C.
As to `CC(CCC(F)(F)C(C)(C)O)C1CCC2C3CC=C4CC(O)CC(O)C4(C)C3CCC12C` (stereo not drawn), the melting point fell in the range of 177 to 179 °C.
Turning to `COCCO[C@@H]1c2ccn3c(Br)c(C)nc3c2N[C@H](c2ccccc2)[C@H]1O`, the melting point lay within 153 to 154 °C.
In the case of `COc1cc(F)nc(NC(=O)NS(=O)(=O)c2ccccc2OS(C)(=O)=O)n1`, the melting point was in the range of 168 to 169 °C.
The figure for `COc1cc(CN2CCNC(CO)C2)cc(OC)c1OC` (stereo not drawn) is 93 °C.
`Clc1ccc2nc(-c3ccccc3)c(-c3ccnnc3)n2n1` had a melting point of 200 to 207 °C.
Next, `COc1ccc(C(=O)Nc2ccc(C(C)=O)cc2)cc1`: 222 to 223 °C; `CCCn1c(=O)[nH]c2c(C)ccc(OCC(O)CN3CCC(COc4ccccc4)CC3)c21` (stereo not drawn): 91 to 93 °C; `COCc1nc(-c2ccc(-c3cnc4[nH]c(=O)n(CC5CCOCC5)c4n3)cc2)n[nH]1`: 273 to 276 °C.
For `Fc1cccc(CN2CCN=C2S)c1`, the melting point was in the range of 186 to 188 °C.
Molecule `CON(C(=O)c1cn(C)nc1C(F)F)C(C)c1cccc(I)c1` (stereo not drawn) gave a melting point of 136 to 138 °C.
For the molecule `C[C@]1(CN2CCN(C(=O)NC3CCCCC3)CC2)Cn2cc([N+](=O)[O-])nc2O1`, the melting point is 98 to 101 °C.
On to `COc1ccc(C(Sc2cc(Oc3cccc(C)c3)ccc2N)C(O)C(=O)O)cc1` (stereo not drawn), for which the melting point fell in the range of 163 to 165 °C.
On to `CC1OC(Cn2cncn2)(c2ccc(Cl)cc2Cl)CN1S(=O)(=O)c1ccc(C(F)(F)F)cc1` (stereo not drawn), for which the melting point lay in the range of 188 to 190 °C.
With `CCCCn1c(=O)c2c(ncn2S(=O)(=O)c2ccc(NO)cc2)n(CCCC)c1=O`, the melting point fell in the range of 148 to 150 °C.
Regarding `CC(=O)Nc1nc(Cl)c2ncn(COC(COC(C)=O)COC(C)=O)c2n1`, the melting point lay within 139 to 140 °C.
Turning to `CCOc1cc(C=C(Br)Br)ccc1OC`, the melting point lay in the range of 41 to 42 °C.
On to `COC(=O)c1ccc(C2(C(=O)Oc3ccc(C(=O)NO)cc3)CCCCC2)cc1`, for which the melting point lay in the range of 129 to 131 °C.
Next, `O=C(O)c1cc2c(c([N+](=O)[O-])c1)OC(C(Cl)(Cl)Cl)OC2C(Cl)(Cl)Cl` (stereo not drawn): 211 to 212 °C.
For `O=C(NCc1ccc(Cl)cc1)c1cn(CCN2CCOCC2)c2ccc(C=CCO)cc2c1=O`, the melting point was in the range of 146 to 148 °C.
The figure for `CCOC(=O)C(=O)Nc1c([N+](=O)[O-])cc(Br)c2c1CN(C)C2` is 153 to 154 °C; for `O=C1Nc2ccc(Cl)cc2C1(O)c1ccccc1OC(F)(F)F` (stereo not drawn) it is 214 °C.
Consider `c1ccn(NC2=NCCN2)c1`, for which the melting point lay in the range of 183 to 184 °C.
Consider `CCCc1nn(C)c2c(=O)n(CCCOc3ccc(SC(C)(C)C(=O)O)cc3)c(C)nc12`, for which the melting point is 140 to 142 °C.
`N#Cc1cnccc1-c1c(-c2ccccc2)nn2ccccc12`: the melting point is 208 to 210 °C.
Molecule `NS(=O)(=O)c1ccc(SCCCO)c(C(=O)O)c1` gave a melting point of 204 to 206 °C.
As to `COc1cn(-c2ccc(-n3nccc3O)cc2F)nc(-c2ccnn2-c2ccccc2)c1=O`, the melting point lay in the range of 221 to 229 °C.
The molecule `CC1CCCN(C(=O)C2Cc3ccc(F)cc3N2c2ccc(=O)n(C)n2)C1` (stereo not drawn) displayed a melting point of 219 to 222 °C.
Next, `Cn1cnc(COc2nn3c(-c4ccccc4)nnc3cc2-c2ccc(Cl)s2)n1`: 248 to 250 °C; `CCOC(=O)c1cc(CC)sc1Nc1cc(F)ccc1N`: 100 to 101 °C.
The figure for `CN1CCN(c2ccc([N+](=O)[O-])cc2C(F)(F)F)C1=O` is 119 to 120 °C; for `CCCCCCC(C(=O)N1CCC[C@H]1C(=O)O)n1cnc(NC(=O)c2ccccc2S(=O)(=O)O)c1` (stereo partly drawn) it is 190 to 195 °C; for `CCOC(=O)C(NC(C)=O)(C(=O)OCC)c1ccc([N+](=O)[O-])cn1` it is 82 to 83 °C.
